The source of these data is patent US20090088461A1, “Methods of Treating or Preventing Cardiac Disease Associated With a High Fat Diet” (Synvista Therapeutics, Inc., priority 2007, published 2009).

Data set [1] concerns the target cross-linking of glycated bovine serum albumin (AGE-BSA) to the rat tail tendon collagen-coated 96-well plate (Bos taurus, UniProt P02769). The data set is described as follows: Cross-Linking Inhibition Assay. Conditions: for inhibition at 10000 µM: read-out: Relative Cross-link Inhibition (at 10 mM).
Procedure: The following method was used to evaluate the ability of the compounds of the present invention to inhibit the cross-linking of glycated bovine serum albumin (AGE-BSA) to the rat tail tendon collagen-coated 96-well plate.
The blocking solution was removed from the wells by, washing the plate twice with PBS-'Tween 20 solution (0.05% Tween 20) using a NUNq-multiprobe or Dynatech ELISA-plate washer. Cross-linking of AGE-BSA (1 to 10 mg per well depending on the batch of AGE-BSA) to rat tail tendon collagen coated plate was performed with and without the testing ‘compound dissolved in PBS buffer at pH 7.4 at the desired concentrations by the, addition of 50 μl each of the AGE-BSA diluted in PBS or in the solution of test compound at 37° C. for 4 hours.
Unbrowned BSA in PBS buffer with or without testing compound were added to the separate wells as the blanks. The un-cross-linked AGE-BSA was then removed by washing the wells three times with PBS-Tween buffer. The amount of AGE-BSA cross-linked to the tail tendon collagen-coated plate was then quantitated using a polyclonal antibody raised against AGE-RNase. After a one-hour incubation period, AGE antibody was removed by washing 4 times with PBS-Tween.
The bound AGE antibody was then detected with the addition of horseradish peroxidase-conjugated secondary antibody—goat anti-rabbit immunoglobulin and incubation for 30 minutes. […] The reaction was allowed for an additional 15 minutes and the absorbance was read at 410 nm in a Dynatech plate reader.
The target of data set [2] is T1, AGE-BSA previously crosslinked to the collagen (Bos taurus, UniProt P02769).
T1 construct: Bovine Serum Albumin (Type V), (BSA) Calbiochem; purchased Calbiochem (BSA Type V); Collaborative Biomedical Products (Biocoat collagen plates)
The data set is described as follows: Cross-Link Breaking Assay (sandwich enzyme immunoassay). It is filed as biochemical. Conditions: for Breaking Anti-AGE: anti-AGE antibody; for Breaking Anti-BSA: anti-BSA antibody. Here is the method:
The present invention also involves a novel sandwich enzyme immunoassay used to ascertain the ability of test compounds to “break” or reverse already formed advanced glycosylation endproducts by detecting the breaking of AGE (Advanced glycosylation endproduct) moieties from AGE-crosslinked protein. This assay comprises:
a) incubation of AGE-modified bovine serum albumin (AGE BSA) on collagen-coated wells of microtiter plates for a period of 2-6 hours' at a temperature of 37° C.
b) washing of the wells with PBS-Tween;
c) application of the test compounds to the washed wells of step b;
d) incubation of the test compounds applied to the washed wells for an additional 12-24 hours at a temperature of about 37° C.; and
e) detection of the AGE-breaking using an antibody raised against AGE-ribonuclease or cross-link breaking with an antibody against BSA.
In order to ascertain the ability of the compounds of the instant invention to “break” or reverse already formed advanced glycosylation endproducts, a novel sandwich enzyme immunoassay was developed which detects breaking of AGE (Advanced glycosylation endproduct) moieties from AGE-crosslinked protein. The assay utilizes collagen-coated 96 well microtiter plates that are obtained commercially. […] Following an incubation period of 16 hours (37° C.) cross-link-breaking is detected using an antibody raised against AGE-ribonuclease or with an antibody against BSA. […] Details of the assay are as follows:
1. AGE-BSA stock solutions were prepared as follows. Sodium phosphate buffer (0.4 M) was prepared by dissolving 6 grams of monobasic sodium phosphate in 100 ml of distilled water, 7 grams of dibasic sodium phosphate (0.4 M) in 100 ml of distilled water and adjusting the pH of the dibasic solution to 7.4 with the monobasic solution. Sodium azide (0.02 grams) was added per 100 ml volume to inhibit bacterial growth. The BSA solution was prepared as follows: 400 mg of Type V BSA (bovine serum albumin) was added for each ml of sodium phosphate buffer (above). A 400 mM glucose solution was prepared by dissolving 7.2 grams of dextrose in 100 ml of sodium phosphate buffer (above). The BSA and glucose solutions were mixed 1:1 and incubated at 37° C. for 12 weeks. The pH of the incubation mixture was monitored weekly and adjusted to pH 7.4 if necessary. After 12 weeks, the AGE-BSA solution was dialyzed against PBS for 48 hours with four buffer changes, each at a 1:500 ratio of solution to dialysis buffer. Protein concentration was determined by the micro-Lowry method. The AGE-BSA stock solution was aliquoted and stored at −20° C.
2. Working solutions for crosslinking and breaking studies were prepared as follows. Test compounds were dissolved in PBS and the pH was adjusted to pH 7.4 if necessary. AGE-BSA stock solution was diluted in PBS to measure maximum crosslinking and in the inhibitor solution for testing inhibitory activity of compounds. The concentration of AGE-BSA necessary to achieve the optimum sensitivity was determined by initial titration of each lot of AGE-BSA.
3. Wash buffer (“PBS-Tween”) was, prepared as follows. PBS was prepared by dissolving the following salts in one liter of distilled water: NaCl, 8 grams; KCl, 0.2 gram, KH2PO4. […] Tween-20 was added to a final concentration of 0.05% (vol/vol).
4. Substrates for detection of secondary antibody binding were prepared by diluting the HRP substrate buffer 1:10 in distilled water and mixing with ABTS chromogen 1:50 just prior to use.
1. Biocoat plates were blocked with 300 μl of “Superbloc”. Plates were blocked for one hour at room temperature and were washed with PBS-Tween three times with the Dynatech platewasher before addition of test reagents.
2. Each experiment was set up in the following manner. The first three wells of the Biocoat plate were used for the reagent blank. Fifty microliters of solutions AGE-BSA were added to test wells in triplicate and only PBS in blank wells.

Data set [3] relates to IgG crosslinked to circulating red blood cells. As to the kind of experiment: RBC-IgG assay. It is filed as in vivo. The following applies: streptozotocin-induced diabetic rats, dosed orally 10 mg/kg body weight, 19 days. An excerpt: 2. […] 3. […] 4. […] 5. […] 6. […] 7. […] 8.
10. […] 11. […] 12. […] 13. […] 14. […] 15. […] 16. […] 17.

Data set [4] addresses AGE-crosslinks that form when AGE-modified BSA (AGE-BSA) is allowed to react with unmodified, native collagen (Bos taurus, UniProt P02769). As to the kind of experiment: Release of BSA from pre-formed AGE-BSA/collagen complexes. It is filed as biochemical. The source says:
Once early, addition products form on proteins, further reactions can ensue to effect a covalent, protein-protein crosslinking reaction. In this regard, a compound of the formula I, N-phenacylthiazolium bromide, was allowed to react with the AGE-crosslinks that form when AGE-modified BSA (AGE-BSA) is allowed to react with unmodified, native collagen. […] Again, this confirmed that a significant portion of the AGE-crosslinks that form under experimental conditions consist of an α-diketone or related structure that is susceptible to cleavage by the advantageous bidentate-type molecules of the compounds of formula I under physiological conditions.

Data set [5] is described as follows: Reaction with 1-phenyl-1,2-propanedione.

Molecules are shown by their SMILES. Where two headings read alike, the source gives them in different places.

T1 sequence (P02769 25-607): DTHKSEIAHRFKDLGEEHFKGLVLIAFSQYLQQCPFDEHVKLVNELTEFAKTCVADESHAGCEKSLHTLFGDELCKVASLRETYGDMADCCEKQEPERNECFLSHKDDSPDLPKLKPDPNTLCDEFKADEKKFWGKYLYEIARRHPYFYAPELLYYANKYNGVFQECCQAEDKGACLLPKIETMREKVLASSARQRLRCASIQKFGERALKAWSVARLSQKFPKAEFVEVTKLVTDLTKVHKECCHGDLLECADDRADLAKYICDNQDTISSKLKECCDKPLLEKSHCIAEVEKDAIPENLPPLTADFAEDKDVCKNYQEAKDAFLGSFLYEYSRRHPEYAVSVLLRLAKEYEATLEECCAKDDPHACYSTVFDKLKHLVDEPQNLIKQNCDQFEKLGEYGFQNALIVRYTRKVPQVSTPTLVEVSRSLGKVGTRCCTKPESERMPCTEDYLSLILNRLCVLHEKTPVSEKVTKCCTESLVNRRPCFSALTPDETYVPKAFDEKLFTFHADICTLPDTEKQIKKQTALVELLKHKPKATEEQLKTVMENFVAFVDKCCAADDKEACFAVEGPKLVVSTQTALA
T1 sequence (P02454 152-1207 partner limits assumed): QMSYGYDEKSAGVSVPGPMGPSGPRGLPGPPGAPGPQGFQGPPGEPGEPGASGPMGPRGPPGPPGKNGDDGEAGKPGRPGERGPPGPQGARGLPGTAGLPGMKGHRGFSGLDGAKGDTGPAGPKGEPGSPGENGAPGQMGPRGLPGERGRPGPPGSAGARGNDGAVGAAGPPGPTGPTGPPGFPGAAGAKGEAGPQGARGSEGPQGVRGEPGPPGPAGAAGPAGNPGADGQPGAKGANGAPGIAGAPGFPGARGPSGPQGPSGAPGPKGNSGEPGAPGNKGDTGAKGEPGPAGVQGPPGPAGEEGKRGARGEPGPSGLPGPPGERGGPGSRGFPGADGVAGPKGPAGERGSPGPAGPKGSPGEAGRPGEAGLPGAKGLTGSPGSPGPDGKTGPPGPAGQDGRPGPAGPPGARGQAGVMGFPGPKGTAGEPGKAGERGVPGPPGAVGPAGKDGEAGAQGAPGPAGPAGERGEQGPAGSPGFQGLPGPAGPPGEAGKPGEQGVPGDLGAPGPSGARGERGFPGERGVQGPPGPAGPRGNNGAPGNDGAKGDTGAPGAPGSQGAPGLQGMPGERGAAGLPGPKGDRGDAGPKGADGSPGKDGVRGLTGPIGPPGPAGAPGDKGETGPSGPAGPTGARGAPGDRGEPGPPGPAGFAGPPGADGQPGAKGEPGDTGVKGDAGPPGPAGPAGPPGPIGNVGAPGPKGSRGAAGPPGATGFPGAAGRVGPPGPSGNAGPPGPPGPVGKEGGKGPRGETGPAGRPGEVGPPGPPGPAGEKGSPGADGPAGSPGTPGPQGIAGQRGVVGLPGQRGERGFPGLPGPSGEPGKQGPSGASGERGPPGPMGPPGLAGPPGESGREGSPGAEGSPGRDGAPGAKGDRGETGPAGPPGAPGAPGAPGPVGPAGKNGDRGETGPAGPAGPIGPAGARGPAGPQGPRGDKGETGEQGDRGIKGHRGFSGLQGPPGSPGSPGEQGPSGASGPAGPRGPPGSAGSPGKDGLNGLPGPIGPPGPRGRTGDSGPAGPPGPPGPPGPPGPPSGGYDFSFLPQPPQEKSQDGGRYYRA
T1 sequence (P02466 86-1125 partner limits assumed): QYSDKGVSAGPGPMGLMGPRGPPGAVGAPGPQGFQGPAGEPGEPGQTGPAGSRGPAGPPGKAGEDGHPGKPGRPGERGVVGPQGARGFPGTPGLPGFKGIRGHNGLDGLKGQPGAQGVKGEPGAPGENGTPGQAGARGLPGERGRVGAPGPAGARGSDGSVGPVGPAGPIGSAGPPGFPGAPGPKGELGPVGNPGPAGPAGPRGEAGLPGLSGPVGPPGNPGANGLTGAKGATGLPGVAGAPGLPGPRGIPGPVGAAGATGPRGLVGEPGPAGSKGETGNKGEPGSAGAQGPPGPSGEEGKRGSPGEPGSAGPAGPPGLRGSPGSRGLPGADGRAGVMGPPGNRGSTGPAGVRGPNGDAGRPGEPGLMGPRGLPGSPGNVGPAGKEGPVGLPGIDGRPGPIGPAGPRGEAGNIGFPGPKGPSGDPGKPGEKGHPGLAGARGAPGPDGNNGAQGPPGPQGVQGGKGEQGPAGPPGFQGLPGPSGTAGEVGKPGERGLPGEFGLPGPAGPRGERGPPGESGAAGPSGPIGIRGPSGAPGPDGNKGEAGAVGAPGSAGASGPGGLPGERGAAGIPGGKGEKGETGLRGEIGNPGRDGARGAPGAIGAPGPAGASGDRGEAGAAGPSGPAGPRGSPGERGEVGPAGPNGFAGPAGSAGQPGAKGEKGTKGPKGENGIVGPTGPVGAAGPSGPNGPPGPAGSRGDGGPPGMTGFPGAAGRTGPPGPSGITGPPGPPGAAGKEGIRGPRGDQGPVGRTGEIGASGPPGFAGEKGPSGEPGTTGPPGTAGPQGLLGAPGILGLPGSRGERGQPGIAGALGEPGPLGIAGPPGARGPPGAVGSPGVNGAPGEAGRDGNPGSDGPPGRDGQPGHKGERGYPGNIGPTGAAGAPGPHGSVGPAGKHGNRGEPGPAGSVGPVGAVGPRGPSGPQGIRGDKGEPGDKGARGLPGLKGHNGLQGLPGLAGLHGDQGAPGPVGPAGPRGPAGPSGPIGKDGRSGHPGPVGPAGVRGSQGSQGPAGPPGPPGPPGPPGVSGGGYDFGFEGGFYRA
Sequence of cross-linking of glycated bovine serum albumin (AGE-BSA) to the rat tail tendon collagen-coated 96-well plate (P02769 25-607): as the sequence (P02769 25-607) above
Sequence of AGE-crosslinks that form when AGE-modified BSA (AGE-BSA) is allowed to react with unmodified, native collagen (P02769 25-607): as above

On to `CCCCN(CCCC)C(=O)C[n+]1csc(CCO)c1C.[Br-]` [3-(2-Dibutylamino-2-oxoethyl]-4-methyl-5-(2′-hydroxyethyl)-thiazolium bromide], for which the inhibition at 10000 µM in data set [1] turned out to be 0.8%. For the same molecule, in data set [2] (at 10 mM), the “Breaking Anti-AGE” value stood at 25% and the “Breaking Anti-BSA” value came to 38%.

Take `Cc1csc[n+]1CC(=O)c1cc(C(C)(C)C)c(O)c(C(C)(C)C)c1.[Br-]` [3-[2-(3′,5′-di-tert-butyl-4′-hydroxyphenyl)-2-oxoethyl]-4-methyl-thiazolium bromide]: in data set [1] (0.3 mM), the “Relative Cross-link Inhibition” value was found to be 24% @ 0.3 mM. In data set [2] (at 0.3 mM), the “Breaking Anti-AGE” value is 14% and the “Breaking Anti-BSA” value is 2%.

As to `Cc1c[n+](CC(=O)c2cc(C(C)(C)C)c(O)c(C(C)(C)C)c2)cs1` [3-[2-(3′,5′-di-tert-butyl-4′-hydroxyphenyl)-2-oxoethyl)-5-methyl-thiazolium bromide], the “Percent Inhibition (percent breaking of RBC-IgG)” value (shortened to “Percent Inhibition”) in data set [3] is on record as 65 ± 15 @ 19 days %. Further, the IC50 in data set [1] turned out to be 0.78 mM; in data set [2] (detection with anti-AGE antibody, read-out: IC50 (mM) Anti-AGE) it was 3 mM. For the same molecule, the inhibition at 1000 µM in data set [1] (read-out: Relative Cross-link Inhibition) is 69%. The “Breaking Anti-AGE” value in data set [2] (at 1 mM) was found to be 65%; in data set [2] (at 10 mM), 48%. Also, the “Breaking Anti-BSA” value in data set [2] (at 1 mM) is 69%; in data set [2] (at 10 mM), 49%.

For `Cc1c(CCO)sc[n+]1CC(=O)c1ccccc1.[Br-]` [3-(2-phenyl-2-oxoethyl)-4-methyl-5-(2-hydroxyethyl)-thiazolium bromide], in data set [1], the half-maximal inhibitory concentration (IC50) is over 10 mM and the inhibition at 10000 µM turned out to be 36%. In data set [2] (at 30 mM), the “Breaking Anti-AGE” value was found to be 67% and the “Breaking Anti-BSA” value was found to be 13%.

In the case of `O=C(C[n+]1ccsc1)c1ccccc1.[Br-]` [3-(2-phenyl-2-oxoethyl)thiazolium bromide], in data set [1], the IC50 stood at 11.1 mM and the inhibition at 10000 µM came to 34%. In data set [2] (concentration not given), the “Breaking Anti-AGE” value is reported as 73% and the “Breaking Anti-BSA” value came to 98%. In data set [4], the “release of BSA from the pre-formed AGE-mediated complexes” value is recorded as “concentration-dependent release of BSA”. Also, the “reaction with 1-phenyl-1,2-propanedione to produce benzoic acid” value in data set [5] is “rapid and readily proceeded”.

For `Cc1csc[n+]1CC(=O)c1ccccc1.[Br-]` [3-(2-phenyl-2-oxoethyl)-4-methylthiazolium bromide], in data set [1], the IC50 was 5.6 mM. Further, in data set [2] (at 30 mM), the “Breaking Anti-AGE” value was 68% and the “Breaking Anti-BSA” value turned out to be 66%.

For the molecule `Cc1c(CCO)sc[n+]1CC(=O)c1ccc2ccccc2c1.[Br-]` [3-(2-(2′-naphthyl)-2-oxoethyl]-4-methyl-5-(2′-hydroxyethyl)-thiazolium bromide], the “Percent Inhibition” value in data set [3] was 40 ± 24 @ 19 days %. Further, in data set [1], the “Relative Cross-link Inhibition (at 10 mM)” value is 61%. In addition, in data set [2] (at 10 mM), the “Breaking Anti-AGE” value worked out at 52% and the “Breaking Anti-BSA” value amounted to 61%.

Molecule `COC(=O)C[n+]1ccsc1.[Br-]` [3-(2-Methoxy-2-Oxoethyl)-Thiazolium Bromide] registered a 50% inhibitory concentration (IC50) in data set [1] of 0.25 mM. Further, in data set [2] (at 30 mM), the “Breaking Anti-AGE” value stood at 38% and the “Breaking Anti-BSA” value was 41%.

In the case of `COC(=O)C[n+]1csc(C)c1.[Br-]` [3-(2-methoxy-2-oxoethyl)-5-methyl-thiazolium bromide], in data set [1], the half-inhibitory concentration (IC50) is 3.2 mM. In addition, in data set [2] (at 30 mM), the “Breaking Anti-AGE” value stood at 72% and the “Breaking Anti-BSA” value was 27%.

Consider `O=C(O)C[n+]1csc2ccccc21.[Br-]` [3-(carboxymethyl)-benzothiazolium bromide], for which, in data set [1], the inhibition at 10000 µM was 16%. In data set [2] (at 30 mM), the “Breaking Anti-AGE” value was 63.7% and the “Breaking Anti-BSA” value stood at 17.9%.

Consider `Cc1c(CCO)sc[n+]1CC(=O)c1ccc2c(c1)OCCO2.[Br-]` [3 (2-(1′,4′-benzodioxan-6-yl)-2-oxoethyl]-4-methyl-5-(2′-hydroxyethyl)-thiazolium bromide], for which the “Relative Cross-link Inhibition (at 10 mM)” value in data set [1] turned out to be 13%. Also, in data set [2] (at 3 mM), the “Breaking Anti-AGE” value amounted to 11% and the “Breaking Anti-BSA” value was 21%.

Take `C=Cc1sc[n+](CC(=O)c2ccccc2)c1C.[Br-]` [3-(2-phenyl-2-oxoethyl)-4-methyl-5-vinyl-thiazolium bromide]: the “Percent Inhibition” value in data set [3] was 58 ± 21 ® 19 days %. Also, in data set [2] (at 1 mM), the “Breaking Anti-AGE” value is 62% and the “Breaking Anti-BSA” value worked out at 82%. For the same molecule, the concentration for half-maximal inhibition (IC50) in data set [2] (detection with anti-BSA antibody, read-out: IC50 (mM) Anti-BSA) turned out to be 0.1 mM.

In the case of `C[n+]1ccn(CC(=O)c2cc(C(C)(C)C)c(O)c(C(C)(C)C)c2)c1` [1-methyl-3-(2-(3′,5′-di-tert-butyl-4′-hydroxyphenyl)-2-oxoethyl]-imidazolium bromide], in data set [1], the IC50 came to 4.5 mM. Moreover, in data set [2] (at 10 mM), the “Breaking Anti-AGE” value is listed as 56% and the “Breaking Anti-BSA” value is 38%.

In the case of `Cc1c(CCOCc2c(Cl)cccc2Cl)sc[n+]1N.Cc1cc(C)c(S(=O)(=O)[O-])c(C)c1` [3-amino-4-methyl-5-(2(2′,6′-dichlorobenzyloxy)ethyl]-thiazolium mesitylenesulfonate], the “Relative Cross-link Inhibition” value in data set [1] (3 mM) was 26.5% (3 mm). In data set [2] (at 10 mM), the “Breaking Anti-AGE” value is reported as 31% and the “Breaking Anti-BSA” value is reported as 54%.

Consider `COC(=O)c1ccc(NC(=O)C[n+]2csc(CCO)c2C)cc1O` [3-(2-(4′-carbmethoxy-3′-hydroxyanilino)-2-oxoethyl]-4-methyl-5-(2′-hydroxyethyl)-thiazolium bromide], for which the IC50 in data set [1] was found to be 1.76 mM. Further, in data set [2] (at 10 mM), the “Breaking Anti-AGE” value is 24% and the “Breaking Anti-BSA” value was determined as 18%.

In the case of `Cc1c(CCO)sc[n+]1CC(=O)Nc1c(C(C)C)cccc1C(C)C.[Br-]` [3-(2-(2′,6′-Diisopropylanilino)-2-oxoethyl]-4-methyl-5-(2′-hydroxyethyl)-thiazolium bromide], in data set [1], the “Relative Cross-link Inhibition (at 10 mM)” value amounted to 19%. In data set [2] (at 10 mM), the “Breaking Anti-AGE” value was determined as 31% and the “Breaking Anti-BSA” value is 48%.

On to `COC(=O)C[n+]1csc2ccccc21.[Br-]` [3-(2-methoxy-2-oxoethyl)-benzothiazolium bromide], for which, in data set [1], the IC50 was over 10 mM and the inhibition at 10000 µM came to 35%. Besides, in data set [2] (at 30 mM), the “Breaking Anti-AGE” value is on record as 66% and the “Breaking Anti-BSA” value is 37%.

`Cc1sc[n+](CC(N)=O)c1C.[Br-]` [3-(2-amino-2-oxoethyl)-4,5-dimethyl-thiazolium bromide] showed an IC50 in data set [1] of 9.9 mM. In addition, in data set [2] (at 30 mM), the “Breaking Anti-AGE” value is listed as 61% and the “Breaking Anti-BSA” value stood at 16%.
